Test results as given in US7989478B2, “Cinnamoyl compound and use of the same” (Sumitomo Chemical Company, Limited, priority 2003, dated 2011).

Experiments:
[1] = test system: ability of TGF-β to promote transcription of a Type I collagen gene; assay: Inhibition of the ability of TGF-β to promote transcription of a Type I collagen gene (COL-Luc reporter gene assay); assay type: cell-based; conditions: final concentration 1 μM; TGF-β added; normal human fetal skin fibroblast transfected with COL-Luc; 40 hours; read-out: Inhibition percentage
Experimental: 1×10^8 cells of a normal human fetal skin fibroblast (Clontech, catalogue No. CC-2509) were cultured at 37° C. overnight under 5% CO2 atmosphere. After the cultured cells were washed with a sodium phosphate buffer (hereinafter, referred to as PBS) twice, 3 ml of PBS was added thereto and the cells were scraped away the wall of a vessel using a cell scraper (Nalgen, catalogue No. 179693). The scraped cells were collected by centrifugation (1,500 rpm, 4° C., 15 min), and these were suspended in 20 ml of PBS and centrifuged again. To the resulting precipitates were added 11 ml of Solution 2 and 4.8 μl of pronase of DNA Extraction Kit (Stratagene, catalogue No. 200600). After shaken at 60° C. for 1 hour, the resulting mixture was allowed to stand in ice for 10 minutes. Then, 4 ml of Solution 3 of the kit was added to the mixture. After mixed, the mixture was allowed to stand in ice for 5 minutes and then centrifuged (3,000 rpm, 4° C., 15 min) to recover a supernatant. To the recovered supernatant was added 2 μl of RNase per 1 ml of the supernatant and the mixture was allowed to stand at 37° C. for 15 minutes. To the mixture was added 2-fold volume of ethanol. After mixed, a white thread-like substance (genomic DNA) appeared and the substance was recovered. The recovered genomic DNA was washed with 70% ethanol and then air-dried. The air-dried genomic DNA was dissolved in 500 μl of 10 mM Tris-HCl, 1 mM EDTA (pH 8.0) (hereinafter, referred to as TE).
The resulting genomic DNA solution (the amount equivalent to 1 μg of genomic DNA), each 1 μl (10 pmol/μl) of an oligonucleotide consisting of the nucleotide sequence represented by SEQ ID No:1 and an oligonucleotide consisting of the nucleotide sequence represented by SEQ ID No:2, 29 μL of distilled water, 5 μl of the buffer attached to TaKaRa LA Taq (TAKARA SHUZO, catalogue No. RR002A), 5 μL of a Mg^2+ solution, 5 μL of a dNTP mixture and 0.5 μl of TaKaRa LA Taq (TAKARA SHUZO, catalogue No. RR002A) were mixed. After the resulting mixed solution was incubated at 94° C. for 5 minutes, the mixed solution was subjected to 30 cycles, in which one cycle consists of incubation at 94° C. for 1 minute, at 60° C. for 1 minute and then at 72° C. for 1 minute. The mixed solution was electrophoresed on a 2% agarose gel to recover about 0.5 kb of a DNA. The recovered DNA was treated with phenol/chloroform and then precipitated with ethanol to recover the DNA. The resulting DNA was dissolved in ultrapure water. To this solution were added 2.5 μl of NheI and 2.5 μl of HindIII, and then incubated at 37° C. for 3 hours. Then, the solution was electrophoresed on a 2% agarose gel to recover about 3.5 kb of a DNA. The recovered DNA was precipitated with ethanol to recover again the DNA (hereinafter, referred to as the collagen promoter DNA).
On the other hand, the vector pGL3 (Promega, catalogue No. E1751) having the nucleotide sequence encoding firefly luciferase was digested with NheI and HindIII, and then subjected to agarose gel electrophoresis as described above to recover about 5 kb of a DNA. The recovered DNA was precipitated with ethanol to recover the DNA again. To the recovered DNA were added 44 μl of distilled water, 5 μl of Buffer attached to Alkaline Phosphatase (TAKARA SHUZO, catalogue No. 2120A) and 1 μl of Alkaline Phosphatase (TAKARA SHUZO, catalogue No. 2120A). The mixed solution was incubated at 65° C. for 30 minutes. Then, the mixed solution was treated with phenol/chloroform twice, and precipitated with ethanol to recover the DNA (hereinafter referred to as the Luc vector DNA). Then, after about 20 ng of the collagen promoter DNA and about 20 ng of the Luc vector DNA were mixed, the same amount of a DNA Ligation kit Ver2 enzyme solution was added and this was incubated overnight at 16° C. To the mixed solution was added Escherichia coli 5Hdα (TOYOBO, catalogue No. DNA-903), this was allowed to stand in ice for 30 minutes, and then incubated at 42° C. for 45 seconds. […]

[2] = test system: mRNA of Type I collagen gene in renal glomerulus; assay: mRNA of Type I collagen gene in renal glomerulus of anti-Thy-1 antibody-administered rats (improvement of chronic renal failure); assay type: in vivo, rat; conditions: for ability to improve chronic renal failure: anti-Thy-1 antibody rats; for mRNA of collagen gene: Type I collagen amount/GAPDH amount, renal cortex, anti-Thy-1 antibody +
Experimental: IgG was purified from an ascites-lyophilized powder (CEDARLANE, lot No. 05122) containing an anti-rat CD90 (Thy1.1) monoclonal antibody using MAbTrap kit (Amersham Biosciences, catalogue No. 17-1128-01).
6 ml of a binding buffer was added to 3 ml of ascites to sufficiently recover it, and this was passed through a 0.22 μm filter. The resulting solution was applied to a pre-bufferized column, and the column was then washed with 10 ml of a binding buffer. Thereafter, the column was eluted with 5 ml of an elution buffer. From washing, each 1 ml was fractionated, and the protein concentration of each fraction was measured using bovine serum albumin as a standard. A single peak was confirmed from an elution pattern, and an IgG fraction was dialyzed against a physiological saline overnight at 4° C. The protein concentration of the resulting anti-Thy-1 antibody (IgG) was calculated.
The present compounds represented by the compound numbers (28a) (hereinafter, referred to as the present compound (28a)), the present compound represented by a compound number (30a) (hereinafter, referred to as the present compound (30a)), the present compound represented by a compound number (33a) (hereinafter, referred to as the present compound (33a)), the present compound represented by a compound number (10e) (hereinafter, referred to as the present compound (10e)), the present compound represented by a compound number (18e) (hereinafter referred to as the present compound (18e)), the present compound represented by a compound number (31e) (hereinafter, referred to as the present compound (31e)) and a corn oil which is a medium were weighed. These were mixed using a mortar and a pestle to prepare a […]. Using four 7-week old male Wistar rats [Nippon Charles River] per group, 60 μg/ml of the anti-Thy-1 antibody (IgG) or a physiological saline was intravenously injected via a tail vein at 5 ml/kg. […] A dose of the present compound was 15 mg/kg/day.
On the next day of final administration, a rat reared as described in the above (2) was slaughtered by collection of whole blood, and kidneys were isolated. A whole RNA was separated from the cortex of the isolated kidney using RNeasy Mini Kit (QIAGEN, catalogue No. 74106). To 5 μl (50 ng) of the separated whole RNA were added 1 μl of 20 μM oligo dT and 4 μl of RNase-free distilled water. After the mixture was incubated at 65° C. for 5 minutes, it was immediately ice-cooled. To 10 μl of the solution were added 4 μl of 5× buffer, 2.4 μl of MgCl2, 1 μl of 10 mM dNTP, 1 μl of RNasin, 1 μl of Improm II and 0.6 μl of RNase-free distilled water (all available from Promega), and a reverse transcription reaction was performed under the condition of at 25° C. for 5 minutes, at 42° C. for 1 hour, and at 70° C. for 15 minutes.
Into 5 μl of the reverse transcription reaction solution were mixed each 2 μl of each 1.25 pmol/μl of primers represented by SEQ ID NOS: 3 and 4, 1.25 μl of a probe (FAM-ctcgccttca tgcgcctgct agc-TAMRA) for detecting DNA of a Type I collagen gene represented by SEQ ID No:5, each 0.25 μl of Rodent GAPDH primers, 0.25 μl of a Rodent GAPDH probe, 12.5 μl of TaqMan Universal PCR Master Mix (all available from Applied Biosystem) and 1.5 μl of sterilized water in a well of Optical 96-Well Reaction Plate (Applied Biosystem, catalogue No. N801-0560). As a standard, in place of 5 μl of the reverse transcription reaction solution, each 5 μl of 500, 250, 125, 62.5, 31.25, 15.625 ng/μl rat renal cortex cDNA which had been prepared in advance was used. Thereafter, using Gene Amp 7900 (Applied Biosystem), PCR was performed under the condition of at 50° C. for 5 minutes, and 40 cycles in which one cycle is at 95° C. for 15 seconds and at 60° C. for 1 minute. […]

[3] = Example 5, 15 mg/kg/day orally for 7 days in corn oil
[4] = Table 4, 15 mg/kg/day orally for 7 days in corn oil, Wistar rats, control group 5.6, normal group 1.7, test results p < 0.01
[5] = Table 3, 15 mg/kg/day orally for 7 days in corn oil, Wistar rats, control group 3.4, normal group 1.9, test results p < 0.05

| SMILES | inhibition at 1 µM [1] | ability to improve chronic renal failure [2, 3] | mRNA of collagen gene [2, 4] | ability to improve chronic renal failure ([2]; Example 6, orally for 7 days in 0.5% aqueous methylcellulose solution) | mRNA of collagen gene ([2]; Table 5 (Example 6), orally for 7 days in 0.5% aqueous methylcellulose solution, 10 Wistar rats per group, control group 2.1, normal group 1.0, test results p < 0.01) | mRNA of collagen gene [2, 5] |
| --- | --- | --- | --- | --- | --- | --- |
| COCCNC(=O)c1ccc(C=CC(=O)c2c(O)c3ccccc3[nH]c2=O)cc1 [Compound No. (31e), 4-hydroxy-3-[3-[4-[(2-methoxyethyl)aminocarbonyl]phenyl]-1-oxo-2-propenyl]-2(1H)-quinolinone] | ≥ 70% | have the ability to improve chronic renal failure | 3.3 | – | – | – |
| Cc1cc(O)c(C(=O)C=Cc2cccc(OCC(=O)O)c2)c(=O)n1C [Compound No. (37a), 4-hydroxy-3-[3-[3-(carboxymethoxy)phenyl]-1-oxo-2-propenyl]-1,6-dimethyl-2(1H)-pyridinone] | – | – | – | has the ability to improve chronic renal failure | 1.5 | – |
| COC(=O)CNC(=O)c1ccc(C=CC(=O)c2c(O)cc(C)[nH]c2=O)cc1 [Compound No. (30a), 4-hydroxy-3-[3-[4-[[(methoxycarbonylmethyl)amino]carbonyl]phenyl]-1-oxo-2-propenyl]-6-methyl-2(1H)-pyridinone] | – | have the ability to improve chronic renal failure | – | – | – | 2.4 |
| N#CCOc1cccc(C=CC(=O)c2c(O)c3ccccc3[nH]c2=O)c1 [Compound No. (10e), 4-hydroxy-3-[3-[3-(cyanomethoxy)phenyl]-1-oxo-2-propenyl]-2(1H)-quinolinone] | ≥ 70% | have the ability to improve chronic renal failure | 2.0 | – | – | – |
| COCC(=O)Nc1cccc(C=CC(=O)c2c(O)c3ccccc3[nH]c2=O)c1 [Compound No. (18e), 4-hydroxy-3-[3-[3-(methoxyacetylamino)phenyl]-1-oxo-2-propenyl]-2(1H)-quinolinone] | ≥ 70% | have the ability to improve chronic renal failure | 1.9 | – | – | – |
| COC(=O)CNC(=O)c1cccc(C=CC(=O)c2c(O)cc(C)[nH]c2=O)c1 [Compound No. (28a), 4-hydroxy-3-[3-[3-[[(methoxycarbonylmethyl)amino]carbonyl]phenyl]-1-oxo-2-propenyl]-6-methyl-2(1H)-pyridinone] | ≥ 70% | have the ability to improve chronic renal failure | – | – | – | 2.0 |
